Read-outs that look alike come from different tables or passages of the source.

In one data set the test system is MCF7. Kind of data set: Cytotoxicity, MCF7 breast line. In kind it is cell-based. The settings on record: Homo sapiens; MCF7 (breast cancer); read-out: CI50 (the source's name).
The test system of another data set is NCIADR. Kind of data set: Cytotoxicity, NCIADR multiple drug resistant ovary line. In kind it is cell-based. The settings on record: Homo sapiens, NCI/ADR-RES, read-out: CI50 (the source's name).
A further data set concerns NCI460. Kind of data set: Cytotoxicity, NCI460 lung line. In kind it is cell-based. The conditions noted are these: Homo sapiens, NCI-460, read-out: CI50 (the source's name).
Another data set has as its system UACC62. In words: Cytotoxicity, UACC62 melanoma line. In kind it is cell-based. The conditions noted are these: Homo sapiens, UACC-62, read-out: CI50 (the source's name).
Data set [1] relates to HUVEC (Normal human endothelial cell). Kind of data set: Cytotoxicity, HUVEC normal cells.
Data set [2] concerns FN-1 (Normal human fibroblast). In words: Cytotoxicity, normal human fibroblasts. In kind it is cell-based. The settings on record: FN-1. How it is done:
Fragments of cutaneous biopsies from patients treated by the Dermatology Service of the Clinic Hospital of the Medicine School of USP were removed for routine diagnostic procedures and part of the surgical flap edge immersed in Eagle culture medium modified by Dulbecco's (DMEM, Sigma Chemical Co., St. Louis, Mo., USA) added of 10% fetal bovine serum (Cultilab Ltda., Campinas-SP), […] and 50 ng/ml amphotericin B at 4 C and kept at 4 C for a maximum of 16 hours.
The fragments were washed three times in the same solution, cut into fragments of approximately 1 mm^3 and transferred to 25 cm^2 culture flasks, kept at 37 C, humid atmosphere containing 5% CO2. Cell growth monitored daily, photo documented in inversion microscopy and culture medium exchanged every 2 or 3 days, according to cell metabolism.
After 7 days, the first change in the culture medium of the flasks was performed once cell growth started, the culture medium was renewed every three days. Plastic flasks were used for cultivation of 25 cm^2 of cultivated area, where more 3 ml of DME medium containing 10% fetal bovine serum and 1% of antibiotic-antimycotic solution will be added.
The cell viability test was performed to verify the effect of the various compounds on the various concentrations previously established: on the lines of tumor cells B16F10 and normal human fibroblasts. The MTT method consists of a cell viability test that measures the activity of mitochondrial dehydrogenase. MTT is a colorimetric method based on the capacity of living cells to reduce salt 3-(4,5-di-methylazole-2-IL)-2,5-diphenyl tetrazolium bromide in the formazan product (Mosmann, 1983). […]
The 96-well plate was read by the spectrophotometer (Spectra MAX-190) using the wavelength of 570 nm. The results were analyzed by absorbance of each well. The percentage of viability was obtained using the following formula: [(Absorbance of treated cells/Absorbance of untreated cells)×100]. […]

Another data set relates to PANC1. Kind of data set: In vitro cytotoxicity, PANC1 pancreas line. In kind it is cell-based. The conditions noted are these: Homo sapiens, PANC-1; PANC1, Table 3; read-out: CI50% (the source's name).
The subject of another data set is Colo205. In words: In vitro cytotoxicity, Colo205 colon line. The format is cell-based. The settings on record: Homo sapiens, COLO 205; Colo205, Table 3; read-out: CI50% (the source's name).
Another data set concerns BxPC3. In words: In vitro cytotoxicity, BxPC3 pancreas line. In kind it is cell-based. The settings on record: Homo sapiens, BXPC-3; BxPC3, Table 3; read-out: CI50% (the source's name).
The subject of another data set is DLD1. In words: Antitumor activity, DLD1 line. In kind it is cell-based. The conditions noted are these: Homo sapiens, DLD-1; DLD1, Table 3; read-out: CI50% (the source's name).
A further data set concerns MIAP2. In words: In vitro cytotoxicity, MIAP2 pancreas line. The settings on record: Homo sapiens; MIAP2, Table 3; read-out: CI50% (the source's name). The format is cell-based.
The subject of another data set is SW620. Kind of data set: In vitro cytotoxicity, SW620 colon line. The format is cell-based. The conditions noted are these: Homo sapiens, SW-620; SW620, Table 3; read-out: CI50% (the source's name).
Data set [3] deals with lines of human carcinoma tested. Kind of data set: In vitro cytotoxicity against the panel of human carcinoma lines. The conditions noted are these: compared with compound 6.
A further data set deals with CRO2B. In words: In vitro cytotoxicity, CRO2B carcinoid line. In kind it is cell-based. The settings on record: Homo sapiens, Table 3, read-out: CI50% (the source's name).
For another data set, the system named is HT-29. In words: In vitro cytotoxicity, HT-29 colon line. The settings on record: Homo sapiens, HT-29; HT29, Table 3; read-out: CI50% (the source's name). The format is cell-based.
For the next data set, the system named is CaCo2. In words: In vitro cytotoxicity, CaCo2 colon line. In kind it is cell-based. The settings on record: Homo sapiens, Caco-2; Caco2, Table 3; read-out: CI50% (the source's name).
Data set [4] deals with SCC9 (squamous-cell carcinoma of the oral cavity). In words: Cytotoxicity, SCC9 cells. The format is cell-based. The settings on record: Homo sapiens, SCC-9, read-out: CI50% tumor cells.
Data set [5] relates to SCC25 (squamous-cell carcinoma of the oral cavity). In words: Cytotoxicity, SCC25 cells. The format is cell-based. The settings on record: Homo sapiens, SCC-25, read-out: CI50% tumor cells.
Data set [6] concerns 4T1 (murine mammary carcinoma). Kind of data set: Cytotoxicity, 4T1 cells. In kind it is cell-based. The settings on record: Mus musculus, read-out: CI50% tumor cells.
The subject of data set [7] is MCF-7 (human mammary adenocarcinoma). Kind of data set: Cytotoxicity, MCF-7 cells. The format is cell-based. The conditions noted are these: MCF7, read-out: CI50% tumor cells.
Data set [8] deals with HUVEC (Normal human endothelial cell).

Regarding `CC(=O)c1ccccc1OCC=C(C)C` [Compound 9, 2-(3-methylbut-2-enyl-oxyi)acetophenone], the IC50 in the data set with MCF7 stood at 122 µM; in the data set with NCIADR, 39.2 µM; in the data set with NCI460 it was 122 µM; in the data set on UACC62, 220 µM.
`COc1ccc(/C=C/C(Cl)=C/C=C(C(C)=O)C(C)=O)cc1OC` [Compound 24, 3-((2Z,4E)-3-chloro-5-(3,4-dimethoxyphenyl)penta-2,4-dien-ylidene)pentane-2,4-dione]: the CI50% Normal cells in [1] came to 114 µM; in data set [2] it was 61.80 µM.
As for `O=CC=C(Cl)c1ccccc1OC(=O)c1ccccc1` [Compound 5, 3-Chloro-3-(2-benzoyloxy-phenyl)propenal], the IC50 in the data set with PANC1 amounted to 177 µM; with Colo205, 149 µM; in the data set with BxPC3, 160 µM; in the data set on DLD1, 127 µM; in the data set on MIAP2, 156 µM; in the data set with SW620 it was 134 µM. The values for the IC50 with CRO2B, with HT-29 and with CaCo2 were 149 µM, 92 µM and 163 µM, respectively. In data set [3], the “cytotoxic activity relative to compound 6” value was “seven times lower”.
With `CC(=O)C(=C/C=C(\Cl)c1ccc(C#C[C@@H]2O[C@H](CO)[C@@H](O)[C@H](O)[C@@H]2O)cc1)C(C)=O` [Compound 18B, 3-((Z)-3-chloro-3-(4-(2-((2S,3R,4R,5R)-tetrahydro-3,4,5-trihydroxy-6-(Hydroxymethy)-2H-pyran-2-il)ethynyl)phenyl)allilideno)pentano-2,4-dione], the IC50 was 0.445 µM in data set [4], 0.453 µM in data set [5] and 0.431 µM in [6]. The same compound had a CI50% Normal cells in data set [1] of 0.293 µM.
Turning to `COc1ccc(/C=C/C(Cl)=C/C=O)cc1OC` [Compound 23, (4E)-3-chloro-5-(3,4-dimethoxyphenyl)penta-2,4-dienal], the IC50 in data set [4] stood at 15 µM; in data set [7], 54.6 µM; in data set [5] it was 3.32 µM; in [6] it was 22.1 µM. For the same compound, the CI50% Normal cells in [1] turned out to be 30.1 µM; in data set [2] it was 53.33 µM.
“5-(chloro-2-(3,4-dimethoxybenzyl)-5-(4-ethynyl-2,3,4,6-benzil-β-D-galactopyranoside)-penta-2,4-dienonitrile [Compound 21A]”: the “CI50% Normal cells” value in data set [8] is 23.09 µM.

Source of the values: patent publication US20230130823A1, “PROCESS FOR THE PRODUCTION OF ANTITUMOUR PHARMACEUTICAL COMPOSITIONS USING PUSH-PULL BUTADIENES, COMPOUNDS AND USES THEREOF” (ANHANGUERA EDUCACIONAL PARTICIPAÇÕES S/A, priority 2019, published 2023).
